Test results from ChEMBL document CHEMBL1135474, “Synthesis and antitumor activity of 1,5,6-substituted E-3-(2-chloro-3-indolylmethylene)-1,3-dihydroindol-2-ones” (J Med Chem, 2002).

Experiments:
[1] = test system: Panel prostate (Carcinoma cell lines); assay: Cytotoxic effect on human prostate tumor cell lines; format: functional
[2] = test system: Panel leukemia (Carcinoma cell lines); assay: Cytostatic effect on human leukemia tumor cell lines; format: functional
[3] = test system: Panel renal (Carcinoma cell lines); assay: Cytostatic effect on human renal tumor cell lines; format: functional
[4] = test system: NCI-H460; assay: Cytotoxic effect on human NCI-H460 lung cancer cell line as percentage growth after inoculation at 10e-4 M; format: functional
[5] = test system: Panel breast (Carcinoma cell lines); assay: Inhibition of proliferation in NCI human breast tumor cell lines; format: functional
[6] = test system: Panel leukemia (Carcinoma cell lines); assay: Inhibition of proliferation in NCI human leukemia tumor cell lines; format: functional
[7] = test system: Panel prostate (Carcinoma cell lines); assay: Cytostatic effect on human prostate tumor cell lines; format: functional
[8] = test system: Panel ovarian (Carcinoma cell lines); assay: Cytostatic effect on human ovarian tumor cell lines; format: functional
[9] = test system: MCF7; assay: Cytotoxic effect on human MCF-7 breast cancer cell line as percentage growth at 10e-4 M; format: functional
[10] = test system: NSCLC; assay: Cytostatic effect on human non-small cell lung carcinoma tumor cell lines; format: functional
[11] = test system: Panel prostate (Carcinoma cell lines); assay: Inhibition of proliferation in NCI human prostate tumor cell lines; format: functional
[12] = test system: NSCLC; assay: Inhibition of proliferation in NCI human non-small cell lung tumor cell lines; format: functional
[13] = test system: Panel colon (Carcinoma cell lines); assay: Inhibition of proliferation in NCI human colon tumor cell lines; format: functional
[14] = test system: Panel leukemia (Carcinoma cell lines); assay: Cytotoxic effect on human leukemia tumor cell lines; format: functional
[15] = test system: Panel ovarian (Carcinoma cell lines); assay: Inhibition of proliferation in NCI human ovarian tumor cell lines; format: functional
[16] = test system: Panel colon (Carcinoma cell lines); assay: Cytostatic effect on human colon tumor cell lines; format: functional
[17] = test system: Panel colon (Carcinoma cell lines); assay: Cytotoxic effect on human colon tumor cell lines; format: functional
[18] = test system: Panel melanoma (Carcinoma cell lines); assay: Cytostatic effect on human melanoma tumor cell lines; format: functional
[19] = test system: Panel renal (Carcinoma cell lines); assay: Cytotoxic effect on human renal tumor cell lines; format: functional
[20] = test system: SF-268; assay: Cytotoxic effect on human SF-268 glioma cancer cell line as percentage growth after inoculation at 10e-4 M; format: functional
[21] = Cytotoxic effect on 60 human tumor cell line panel, MG-MID represents mean value; format: functional
[22] = test system: Panel breast (Carcinoma cell lines); assay: Cytostatic effect on human breast tumor cell lines; format: functional
[23] = test system: Panel melanoma (Carcinoma cell lines); assay: Inhibition of proliferation in NCI human melanoma tumor cell lines; format: functional
[24] = Inhibition of proliferation in NCI 60 human tumor cell line panel, MG-MID represents mean value; format: functional
[25] = test system: Panel CNS (Carcinoma cell lines); assay: Inhibition of proliferation in NCI human CNS tumor cell lines; format: functional
[26] = test system: Panel melanoma (Carcinoma cell lines); assay: Cytotoxic effect on human melanoma tumor cell lines; format: functional
[27] = test system: Panel CNS (Carcinoma cell lines); assay: Cytostatic effect on human CNS tumor cell lines; format: functional
[28] = test system: Panel ovarian (Carcinoma cell lines); assay: Cytotoxic effect on human ovarian tumor cell lines; format: functional
[29] = Cytostatic effect on 60 human tumor cell line panel, MG-MID represents mean value; format: functional
[30] = test system: Panel renal (Carcinoma cell lines); assay: Inhibition of proliferation in NCI human renal tumor cell lines; format: functional
[31] = test system: Panel CNS (Carcinoma cell lines); assay: Cytotoxic effect on human CNS tumor cell lines; format: functional
[32] = test system: Panel breast (Carcinoma cell lines); assay: Cytotoxic effect on human breast tumor cell lines; format: functional
[33] = molecular target: Cyclin-dependent kinase 1/cyclin B (Homo sapiens, UniProt P06493); assay: Inhibition of Cyclin-dependent kinase 1-cyclin B; format: protein-complex assay

Compound: COc1cc2c(/C=C3/C(=O)N(c4ccccc4)c4ccccc43)c(Cl)[nH]c2cc1C
- LC50 [1]: -4
- logTGI [2]: -4.4 log M
- logTGI [3]: -4.4 log M
- Growth [4]: -10%
- GI50 [5]: 2510 nM
- GI50 [6]: 2510 nM
- logTGI [7]: -4.9 log M
- logTGI [8]: -4.8 log M
- Growth [9]: 1%
- logTGI [10]: -4.5 log M
- GI50 [11]: 3160 nM
- GI50 [12]: 3160 nM
- GI50 [13]: 2510 nM
- LC50 [14]: -4
- GI50 [15]: 2510 nM
- logTGI [16]: -4.7 log M
- LC50 [17]: -4.2
- logTGI [18]: -4.9 log M
- LC50 [19]: -4.1
- Growth [20]: 1%
- LC50 [21]: -4.1
- logTGI [22]: -5 log M
- GI50 [23]: 3160 nM
- GI50 [24]: 3160 nM
- GI50 [25]: 3160 nM
- LC50 [26]: -4.3
- logTGI [27]: -4.7 log M
- LC50 [28]: -4.3
- logTGI [29]: -4.7 log M
- GI50 [30]: 3980 nM
- LC50 [31]: -4.2

Compound: COc1cc2c(cc1C)NC(=O)/C2=C/c1c(Cl)[nH]c2cc(C)c(OC)cc12
- LC50 [1]: -4.4
- logTGI [2]: -4.8 log M
- logTGI [3]: -4.8 log M
- Growth [4]: -63%
- GI50 [5]: 2510 nM
- GI50 [6]: 501 nM
- logTGI [7]: -4.9 log M
- TGI [8]: -4.9 log10 M
- Growth [9]: -51%
- logTGI [10]: -4.8 log M
- GI50 [11]: 1260 nM
- GI50 [12]: 3160 nM
- GI50 [13]: 3980 nM
- LC50 [14]: -4.2
- GI50 [15]: 2000 nM
- logTGI [16]: -4.7 log M
- LC50 [17]: -4.2
- TGI [18]: -4.8 log10 M
- LC50 [19]: -4.3
- Growth [20]: -67%
- LC50 [32]: -4.1
- LC50 [21]: -4.3
- logTGI [22]: -4.7 log M
- GI50 [23]: 3160 nM
- GI50 [24]: 2000 nM
- GI50 [25]: 631 nM
- LC50 [26]: -4.3
- logTGI [27]: -5.3 log M
- LC50 [28]: -4.4
- logTGI [29]: -4.8 log M
- GI50 [30]: 2510 nM
- LC50 [31]: -4.6

Compound: COc1cc2c(cc1C)NC(=O)/C2=C/c1c(Cl)n(-c2ccccc2)c2ccccc12
- Growth [4]: 5%
- Growth [9]: 8%
- Growth [20]: 51%

Compound: COc1ccc2c(c1)/C(=C\c1c(Cl)[nH]c3cc(C)c(OC)cc13)C(=O)N2
- LC50 [1]: -4.4
- logTGI [2]: -5.1 log M
- logTGI [3]: -4.8 log M
- Growth [4]: -48%
- GI50 [5]: 1000 nM
- GI50 [6]: 501 nM
- logTGI [7]: -5.1 log M
- logTGI [8]: -5.3 log M
- Growth [9]: -54%
- logTGI [10]: -4.8 log M
- GI50 [11]: 1260 nM
- GI50 [12]: 2510 nM
- GI50 [13]: 1000 nM
- LC50 [14]: -4.2
- GI50 [15]: 794 nM
- logTGI [16]: -5 log M
- LC50 [17]: -4.4
- logTGI [18]: -5 log M
- LC50 [19]: -4.3
- Growth [20]: -44%
- LC50 [21]: -4.3
- logTGI [22]: -5 log M
- GI50 [23]: 1000 nM
- GI50 [24]: 1000 nM
- GI50 [25]: 794 nM
- LC50 [26]: -4.5
- logTGI [27]: -5.2 log M
- LC50 [28]: -4.3
- logTGI [29]: -5 log M
- GI50 [30]: 2000 nM
- LC50 [31]: -4.7

Compound: COc1cc2c(/C=C3/C(=O)N(C)c4ccccc43)c(Cl)[nH]c2cc1C
- LC50 [1]: -4
- logTGI [2]: -4.6 log M
- logTGI [3]: -4.2 log M
- Growth [4]: -18%
- GI50 [5]: 158 nM
- GI50 [6]: 251 nM
- logTGI [7]: -4.7 log M
- logTGI [8]: -5.2 log M
- Growth [9]: 4%
- logTGI [10]: -5 log M
- GI50 [11]: 398 nM
- GI50 [12]: 794 nM
- GI50 [13]: 316 nM
- LC50 [14]: -4
- GI50 [15]: 316 nM
- logTGI [16]: -5 log M
- LC50 [17]: -4.2
- logTGI [18]: -4.6 log M
- LC50 [19]: -4
- Growth [20]: -1%
- LC50 [21]: -4.1
- logTGI [22]: -5.1 log M
- GI50 [23]: 631 nM
- GI50 [24]: 398 nM
- GI50 [25]: 200 nM
- LC50 [26]: -4
- logTGI [27]: -5.6 log M
- LC50 [28]: -4.3
- logTGI [29]: -4.9 log M
- GI50 [30]: 2000 nM
- LC50 [31]: -4.5

Compound: O=C1Nc2ccccc2/C1=C\c1c(Cl)n(-c2ccccc2)c2ccccc12
- Growth [4]: -16%
- Growth [9]: 8%
- Growth [20]: -17%

Compound: CC[C@]1(O)C[C@H]2CN(CCc3c([nH]c4ccccc34)[C@@](C(=O)OC)(c3cc4c(cc3OC)N(C=O)[C@H]3[C@@](O)(C(=O)OC)[C@H](OC(C)=O)[C@]5(CC)C=CCN6CC[C@]43[C@@H]65)C2)C1.O=S(=O)(O)O [VINCRISTINE SULFATE]
- LC50 [1]: -3.5
- logTGI [2]: -4.8
- logTGI [3]: -4.7
- GI50 [5]: 316 nM
- GI50 [6]: 100 nM
- logTGI [7]: -5.2
- logTGI [8]: -4.7
- logTGI [10]: -4.8 log M
- GI50 [11]: 126 nM
- GI50 [12]: 251 nM
- GI50 [13]: 100 nM
- LC50 [14]: -3.2
- GI50 [15]: 316 nM
- logTGI [16]: -5.4
- LC50 [17]: -4.1
- logTGI [18]: -5.1 log M
- LC50 [19]: -3.6
- LC50 [32]: -3.5
- LC50 [21]: -3.6
- logTGI [22]: -5.1
- GI50 [23]: 158 nM
- GI50 [24]: 200 nM
- GI50 [25]: 126 nM
- LC50 [26]: -3.6
- logTGI [27]: -5.2
- LC50 [28]: -3.5
- logTGI [29]: -5
- GI50 [30]: 316 nM
- LC50 [31]: -3.7

Compound: COc1cc2c(cc1C)NC(=O)/C2=C/c1c(Cl)[nH]c2ccccc12
- Growth [4]: -35%
- Growth [9]: -35%
- IC50 [33]: 20000 nM
- Growth [20]: -48%

Compound: O=C1Nc2ccccc2/C1=C\c1c(Cl)[nH]c2ccc(O)cc12
- Growth [4]: -82%
- Growth [9]: -69%
- IC50 [33]: 30000 nM
- Growth [20]: -34%

Compound: COc1cc2c(/C=C3/C(=O)Nc4ccccc43)c(Cl)[nH]c2cc1C
- LC50 [1]: -4.4
- logTGI [2]: -4.7 log M
- logTGI [3]: -4.7 log M
- Growth [4]: -39%
- GI50 [5]: 100 nM
- GI50 [6]: 63.1 nM
- logTGI [7]: -4.8 log M
- logTGI [8]: -5.2 log M
- Growth [9]: -54%
- logTGI [10]: -4.7 log M
- GI50 [11]: 126 nM
- GI50 [12]: 126 nM
- GI50 [13]: 79.4 nM
- LC50 [14]: -4.1
- GI50 [15]: 79.4 nM
- logTGI [16]: -5.1 log M
- LC50 [17]: -4.6
- logTGI [18]: -5 log M
- LC50 [19]: -4.3
- Growth [20]: -30%
- LC50 [21]: -4.3
- logTGI [22]: -5.3 log M
- GI50 [23]: 126 nM
- GI50 [24]: 100 nM
- GI50 [25]: 79.4 nM
- LC50 [26]: -4.6
- logTGI [27]: -5.6 log M
- LC50 [28]: -4.4
- logTGI [29]: -5 log M
- GI50 [30]: 200 nM
- LC50 [31]: -4.4

Compound: COc1ccc2c(c1)/C(=C\c1c(Cl)n(-c3ccccc3)c3ccccc13)C(=O)N2
- Growth [4]: -28%
- Growth [9]: -6%
- Growth [20]: 12%

Compound: COc1ccc2[nH]c(Cl)c(/C=C3/C(=O)N(c4ccccc4)c4ccccc43)c2c1
- Growth [4]: 2%
- Growth [9]: 3%
- Growth [20]: 15%

Compound: COc1cc2c(cc1C)NC(=O)/C2=C/c1c(Cl)n(C)c2ccccc12
- Growth [4]: -50%
- Growth [9]: 3%
- Growth [20]: -14%

Compound: O=C1/C(=C/c2c(Cl)[nH]c3ccccc23)c2ccccc2N1c1ccccc1
- Growth [4]: -1%
- Growth [9]: -3%
- Growth [20]: 6%

Compound: COc1ccc2[nH]c(Cl)c(/C=C3/C(=O)Nc4cc(C)c(OC)cc43)c2c1
- Growth [4]: -23%
- Growth [9]: -23%
- IC50 [33]: 30000 nM
- Growth [20]: -54%
